Test results as given in ChEMBL document CHEMBL3593163, “Synthesis and Characterization of 5-Hydroxy-2-(2-phenylethyl)chromone (5-HPEC) and Its Analogues as Non-nitrogenous 5-HT2B Ligands” (J Nat Prod, 2015).

Key:
[1] = biological target: 5-hydroxytryptamine receptor 2A (Homo sapiens) (UniProt P28223); assay: Displacement of [3H]ketanserin from human 5HT2A receptor expressed in HEKT cells membranes at 10 uM; assay type: cell membranes
[2] = biological target: 5-hydroxytryptamine receptor 2B (Homo sapiens) (UniProt P41595); assay: Displacement of [3H]LSD from human 5HT2B receptor expressed in stable HEK cells membranes at 10 uM; assay type: cell membranes; conditions: HEK293
[3] = biological target: T1, 5-hydroxytryptamine receptor 2C (Homo sapiens) (UniProt P28335); assay: Displacement of [3H]mesulergine from human 5HT2C receptor expressed in Flp-IN HEK cell membranes at 10 uM; conditions: HEK293
T1 sequence (whole entry): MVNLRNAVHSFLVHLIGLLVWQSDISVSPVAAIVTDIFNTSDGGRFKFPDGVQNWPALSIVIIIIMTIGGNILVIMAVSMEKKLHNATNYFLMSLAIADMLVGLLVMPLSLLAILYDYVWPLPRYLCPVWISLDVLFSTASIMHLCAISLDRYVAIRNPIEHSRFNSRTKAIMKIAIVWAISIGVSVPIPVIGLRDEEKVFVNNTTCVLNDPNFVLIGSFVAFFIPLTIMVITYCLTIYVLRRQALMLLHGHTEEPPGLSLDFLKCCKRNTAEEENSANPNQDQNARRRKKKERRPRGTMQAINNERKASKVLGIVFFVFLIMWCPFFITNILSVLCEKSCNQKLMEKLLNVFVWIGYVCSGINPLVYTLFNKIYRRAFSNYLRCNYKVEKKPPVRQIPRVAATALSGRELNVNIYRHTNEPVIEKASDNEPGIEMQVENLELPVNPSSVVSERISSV

[4] = biological target: 5-hydroxytryptamine receptor 2B (Homo sapiens) (UniProt P41595); assay: Agonist activity at human 5HT2B receptor expressed in Flp-IN HEK cells at 10 um by calcium mobilization assay relative to 5-HT; assay type: functional, cell-based; conditions: HEK293
[5] = biological target: 5-hydroxytryptamine receptor 2B (Homo sapiens) (UniProt P41595); assay: Potency index, ratio of pKi for 5-HPEC to pKi for test compound against human 5HT2B receptor expressed in stable HEK cells membranes; assay type: cell-based; conditions: HEK293
[6] = biological target: 5-hydroxytryptamine receptor 2B (Homo sapiens) (UniProt P41595); assay: Antagonist activity against human 5HT2B receptor expressed in Flp-IN HEK cells assessed as inhibition of 5-HT-induced response at 10 uM by calcium mobilization assay; assay type: functional, cell-based; conditions: HEK293

Chain of 5-hydroxytryptamine receptor 2B (Homo sapiens) (P41595 whole entry): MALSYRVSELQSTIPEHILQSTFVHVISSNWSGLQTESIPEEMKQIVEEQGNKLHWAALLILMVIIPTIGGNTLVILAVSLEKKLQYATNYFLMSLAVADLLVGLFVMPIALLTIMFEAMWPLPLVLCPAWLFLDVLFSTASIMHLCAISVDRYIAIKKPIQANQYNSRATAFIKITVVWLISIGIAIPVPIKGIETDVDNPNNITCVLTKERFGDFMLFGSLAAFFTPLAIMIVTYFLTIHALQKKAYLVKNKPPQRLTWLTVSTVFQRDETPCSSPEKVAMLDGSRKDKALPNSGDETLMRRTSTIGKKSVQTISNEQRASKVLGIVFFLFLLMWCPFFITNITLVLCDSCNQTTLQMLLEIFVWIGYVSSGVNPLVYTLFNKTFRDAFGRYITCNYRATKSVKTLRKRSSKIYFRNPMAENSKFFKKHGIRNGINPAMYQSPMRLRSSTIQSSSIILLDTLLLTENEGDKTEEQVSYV
Chain of 5-hydroxytryptamine receptor 2A (Homo sapiens) (P28223 whole entry): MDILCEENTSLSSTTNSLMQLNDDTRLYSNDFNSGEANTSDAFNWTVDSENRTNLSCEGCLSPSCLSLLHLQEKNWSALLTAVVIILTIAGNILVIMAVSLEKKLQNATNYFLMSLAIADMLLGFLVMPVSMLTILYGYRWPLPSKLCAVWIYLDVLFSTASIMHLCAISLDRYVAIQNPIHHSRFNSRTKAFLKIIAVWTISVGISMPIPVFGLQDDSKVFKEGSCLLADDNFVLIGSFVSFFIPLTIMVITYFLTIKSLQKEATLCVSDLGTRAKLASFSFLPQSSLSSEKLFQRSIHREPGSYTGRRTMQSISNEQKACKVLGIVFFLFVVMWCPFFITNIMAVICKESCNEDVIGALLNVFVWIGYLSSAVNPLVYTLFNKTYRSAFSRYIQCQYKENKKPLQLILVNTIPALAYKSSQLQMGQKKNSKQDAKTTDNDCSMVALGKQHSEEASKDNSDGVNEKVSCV

Structure (SMILES)	inhibition [1] [%]	inhibition [2] [%]	inhibition [3] [%]	Efficacy [4] [%]	Ratio [5]	inhibition [6] [%]
O=c1cc(CCc2ccc(O)cc2)oc2cc(O)ccc12	33.3	40.8	53.1			
O=c1cc(CCc2cccc(O)c2)oc2cc(O)ccc12	23.2	25.3	0			
O=c1cc(COCc2ccccc2)oc2cccc(O)c12	3.2	77.7	42.1			
O=c1cc(CCc2ccccc2)oc2cc(O)ccc12	35.5	34.2	33.7			

The next lines start with the values.

inhibition [1] [%]	inhibition [2] [%]	inhibition [3] [%]	Efficacy [4] [%]	Ratio [5]	inhibition [6] [%]	Structure (SMILES)
39	76.3	30.4				O=c1cc(CCc2cccc(O)c2)oc2cccc(O)c12
12.4	68.8	24.2				O=c1cc(CCc2ccco2)oc2cccc(O)c12
24.3	12.8	23.8				O=c1cc(CCc2ccccc2O)oc2cccc(O)c12
			0.23	10	20.5	O=c1cc(CCCc2ccccc2)oc2cccc(O)c12
		7				O=c1cc(COc2ccccc2)oc2cccc(O)c12
47.9	16.6	44				O=c1cc(CCc2ccccc2O)oc2cc(O)ccc12
